According to US6914045B2, “Glycopeptide antibiotics” (Wyeth Holdings Corporation, priority 2001, dated 2005):

How the values were obtained:
Test in all cases: in vitro antibacterial evaluation, MIC by broth dilution
Format in all cases: cell-based
Streptococcus sp. = conditions: broth dilution, 18 hours at 35° C.
In short: (§1)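 Test organisms, which included recent clinical isolates resistant to methicillin, penicillin and/or vancomycin, were inoculated at 5×10^5 CFU/mL into Muller-Hinton II […] containing antibiotic at 64-0.06 μg/mL. Minimum inhibitory concentrations were then read as the lowest level inhibiting growth.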

Enterococcus sp. = conditions: broth dilution, 18 hours at 35° C.
In short: as §1

Staphylococcus sp. = conditions: broth dilution, 18 hours at 35° C.
In short: as §1

Escherichia coli = conditions: 18 hours at 35° C.

CC(c1ccccc1)C1NC(=O)CNC(=O)C(CO)NC(=O)C(C(O)C2CNC(=N)N2C2OC(CO)C(O)C(O)C2O)NC(=O)C(C(O)C2CNC(=N)N2)NC(=O)C(Cc2ccc(OC3OC(CO)C(OC4OC(CO)C(OCC=Cc5ccc(N(C)C)cc5)C(O)C4O)C(O)C3O)cc2)NC1=O (stereo not shown) [Example 243a]
1 µg/mL: MIC Streptococcus pneumoniae (GC 1894) (Streptococcus sp.) | MIC Streptococcus pneumoniae (GC 1894) (Streptococcus sp.; inoculum 5×10^5 CFU/mL, strain GC 1894)
8 µg/mL: MIC Streptococcus pyogenes (GC 4563) (Streptococcus sp.) | MIC Streptococcus pyogenes (GC 4563) (Streptococcus sp.; inoculum 5×10^5 CFU/mL, strain GC 4563)
32 µg/mL: MIC Enterococcus faecalis (ATCC 29212) (Enterococcus sp.) | MIC Enterococcus faecalis (GC 2242) (Enterococcus sp.) | MIC Enterococcus faecalis (GC 2691) (Enterococcus sp.) | MIC Enterococcus faecalis (GC 3059) (Enterococcus sp.) | MIC Enterococcus faecalis (GC 4552) (Enterococcus sp.) | MIC Enterococcus faecalis (GC 4553) (Enterococcus sp.) | MIC Enterococcus faecalis (GC 4554) (Enterococcus sp.) | MIC Enterococcus faecalis (GC 6189) (Enterococcus sp.) | MIC Enterococcus faecium (GC 2243) (Enterococcus sp.) | MIC Enterococcus faecium (GC 4556) (Enterococcus sp.) | MIC Enterococcus faecalis (ATCC 29212) (Enterococcus sp.; strain ATCC 29212) | MIC Enterococcus faecium (GC 2243) (Enterococcus sp.; strain GC 2243) | MIC Enterococcus faecalis (GC 4552) (Enterococcus sp.; strain GC 4552) | MIC Enterococcus faecalis (GC 4553) (Enterococcus sp.; strain GC 4553) | MIC Enterococcus faecalis (GC 4554) (Enterococcus sp.; strain GC 4554) | MIC Enterococcus faecium (GC 4556) (Enterococcus sp.; strain GC 4556) | MIC Enterococcus faecalis (GC 6189) (Enterococcus sp.; strain GC 6189) | MIC Enterococcus faecalis (GC 2242) (Enterococcus sp.; inoculum 5×10^5 CFU/mL, strain GC 2242) | MIC Enterococcus faecalis (GC 2691) (Enterococcus sp.; inoculum 5×10^5 CFU/mL, strain GC 2691) | MIC Enterococcus faecalis (GC 3059) (Enterococcus sp.; inoculum 5×10^5 CFU/mL, strain GC 3059) | MIC Coagulase Negative Staphylococcus (GC 4547) (Staphylococcus sp.) | MIC Coagulase Negative Staphylococcus (GC 4548) (Staphylococcus sp.) | MIC Coagulase Negative Staphylococcus (GC 4551) (Staphylococcus sp.) | MIC Staphylococcus aureus (ATCC 29213) (Staphylococcus sp.) | MIC Staphylococcus aureus (GC 1131) (Staphylococcus sp.) | MIC Staphylococcus aureus (GC 3051) (Staphylococcus sp.) | MIC Staphylococcus aureus (GC 3053) (Staphylococcus sp.) | MIC Staphylococcus aureus (GC 4541) (Staphylococcus sp.) | MIC Staphylococcus aureus (GC 4542) (Staphylococcus sp.) | MIC Staphylococcus aureus (GC 4544) (Staphylococcus sp.) | MIC Staphylococcus aureus (GC 4545) (Staphylococcus sp.) | MIC Staphylococcus aureus-SMITH (GC 4543) (Staphylococcus sp.) | MIC Staphylococcus haemolyticus (GC 4546) (Staphylococcus sp.) | MIC Staphylococcus aureus (ATCC 29213) (Staphylococcus sp.; strain ATCC 29213) | MIC Staphylococcus aureus (GC 1131) (Staphylococcus sp.; strain GC 1131) | MIC Staphylococcus aureus (GC 3051) (Staphylococcus sp.; strain GC 3051) | MIC Staphylococcus aureus (GC 3053) (Staphylococcus sp.; strain GC 3053) | MIC Staphylococcus aureus (GC 4541) (Staphylococcus sp.; strain GC 4541) | MIC Staphylococcus aureus (GC 4542) (Staphylococcus sp.; strain GC 4542) | MIC Staphylococcus aureus-SMITH (GC 4543) (Staphylococcus sp.; strain GC 4543) | MIC Staphylococcus aureus (GC 4544) (Staphylococcus sp.; strain GC 4544) | MIC Staphylococcus aureus (GC 4545) (Staphylococcus sp.; strain GC 4545) | MIC Staphylococcus haemolyticus (GC 4546) (Staphylococcus sp.; strain GC 4546) | MIC Coagulase Negative Staphylococcus (GC 4547) (Staphylococcus sp.; strain GC 4547) | MIC Coagulase Negative Staphylococcus (GC 4548) (Staphylococcus sp.; strain GC 4548) | MIC Coagulase Negative Staphylococcus (GC 4551) (Staphylococcus sp.; strain GC 4551) | MIC Escherichia coli (GC 4560) (Escherichia coli)
>64 µg/mL: MIC Escherichia coli (ATCC 25922) (Escherichia coli) | MIC Escherichia coli (GC 4559) (Escherichia coli)
2 µg/mL: MIC Streptococcus pneumoniae (GC 4565) (Streptococcus sp.) | MIC Streptococcus pneumoniae (GC 4565) (Streptococcus sp.; inoculum 5×10^5 CFU/mL, strain GC 4565)
16 µg/mL: MIC Streptococcus agalactiae (GC 4564) (Streptococcus sp.) | MIC Streptococcus pneumoniae (ATCC 6301) (Streptococcus sp.) | MIC Streptococcus pneumoniae (ATCC 6301) (Streptococcus sp.; inoculum 5×10^5 CFU/mL, strain ATCC 6301) | MIC Streptococcus agalactiae (GC 4564) (Streptococcus sp.; inoculum 5×10^5 CFU/mL, strain GC 4564) | MIC Enterococcus avium (GC 4558) (Enterococcus sp.) | MIC Enterococcus faecium (GC 4557) (Enterococcus sp.) | MIC Enterococcus faecium (GC 4557) (Enterococcus sp.; strain GC 4557) | MIC Enterococcus avium (GC 4558) (Enterococcus sp.; strain GC 4558) | MIC Coagulase Negative Staphylococcus (GC 4549) (Staphylococcus sp.) | MIC Coagulase Negative Staphylococcus (GC 6257) (Staphylococcus sp.) | MIC Coagulase Negative Staphylococcus (GC 4549) (Staphylococcus sp.; strain GC 4549) | MIC Coagulase Negative Staphylococcus (GC 6257) (Staphylococcus sp.; strain GC 6257)
